Laboratory results reported in patent publication US9174995B2, “Pyrrolotriazinone derivatives” (Merck Patent GmbH, priority 2012, dated 2015).
pEC50, pIC50: −log10 of the molar value.

Assays:
[1] = biological target: T1, GST-tagged Tankyrase-1 (1023-1327 aa) (Homo sapiens, UniProt O95271); experiment: Tankyrase 1 autoparsylation assay (HTRF enzyme assay); assay type: biochemical
T1 construct: GST-tagged Tankyrase-1 (1023-1327 aa)
Procedure: (§1) Biochemical Activity Testing of Tankyrase 1 and 2: Autoparsylation Assay
(§2) The autoparsylation assay is run in two steps: the enzymatic reaction in which GST-tagged Tankyrase-1, resp Tankyrase-2 transferred biotinylated ADP-ribose to itself from biotinylated NAD as co-substrate and the detection reaction where a time resolved FRET between cryptate labelled anti-GST bound to the GST tag of the enzyme and Xlent® labelled-streptavidin bound the biotin-parsylation residue is analysed. The autoparsylation activity was detectable directly via the increase in HTRF signal.
(§3) The autoparsylation assay is performed as 384-well HTRF® (Cisbio, Codolet, France) assay format in Greiner low volume nb 384-well microtiter plates and is used for high throughput screen. 250 nM GST-tagged Tankyrase-1 (1023-1327 aa), respectively about 250 nM GST-tagged Tankyrase-2 (873-1166 aa) and 5 μM bio-NAD (Biolog, Life science Inst., Bremen, Germany) as co-substrate are incubated in a total volume of 5 μl (50 mM HEPES, 4 mM Mg-chloride, 0.05% Pluronic F-68, 1.4 mM DTT, 0.5% DMSO, pH 7.7) in the absence or presence of the test compound (10 dilution concentrations) for 90 min at 30° C. The reaction is stopped by the addition of 1 μl 50 mM EDTA solution. 2 μl of the detection solution (1.6 μM SA-Xlent® (Cisbio, Codolet, France), 7.4 nM Anti-GST-K® (Eu-labelled anti-GST, Cisbio, Codolet, France) in 50 mM HEPES, 800 mM KF, 0.1% BSA, 20 mM EDTA, 0.1% CHAPS, pH 7.0) are added. After 1 h incubation at room temperature the HTRF is measured with an Envision multimode reader (Perkin Elmer LAS Germany GmbH) at excitation wavelength 340 nm (laser mode) and emission wavelengths 615 nm and 665 nm. The ratio of the emission signals is determined. The full value used is the inhibitor-free reaction. The pharmacological zero value used is XAV-939 (Tocris) in a final concentration of 5 μM. The inhibitory values (IC50) are determined using either the program Symyx Assay Explorer® or Condosseo® from GeneData.

[2] = biological target: T2, GST-tagged Tankyrase-2 (873-1166 aa) (Homo sapiens, UniProt Q9H2K2); experiment: Tankyrase 2 autoparsylation assay (HTRF enzyme assay); assay type: biochemical
T2 construct: GST-tagged Tankyrase-2 (873-1166 aa)
Procedure: as §1, §2, §3

[3] = biological target: T3, GST-tagged Tnks-1 (1023-1327 aa) (Homo sapiens, UniProt O95271); experiment: TNKS1 activity ELISA (autoparsylation assay); assay type: biochemical
T3 construct: GST-tagged Tnks-1 (1023-1327 aa, prepared in-house); made in house
Procedure: (§4) Description of the TNKS1 and TNKS2 ELISA Assay
(§5) Biochemical Activity Testing of TNKS 1 and 2: Activity ELISA (Autoparsylation Assay)
(§6) For analysis of autoparsylation activity of TNKS 1 and 2 an activity ELISA is performed: In the first step GST tagged TNKS is captured on a Glutathione coated plate. Then the activity assay with biotinylated NAD is performed in the absence/presence of the compounds. During the enzymatic reaction GST tagged TNKS transfers biotinylated ADP-ribose to itself from biotinylated NAD as co-substrate. For the detection streptavidin-HRP conjugate is added that binds to the biotinylated TNKS and is thereby captured to the plates. The amount of biotinylated resp. autoparsylated TNKS is detected with a luminescence substrate for HRP. The level of the luminescence signal correlats directly with the amount of autoparsylated TNKS and therefore with activity of TNKS.
(§7) The activity ELISA is performed in 384 well Glutathione coated microtiter plates (Express capture Glutathione coated plate, Biocat, Heidelberg, Germany). The plates are pre-equilibrated with PBS. Then the plates are incubated with 50 μl 20 ng/well GST-tagged Tnks-1 (1023-1327 aa, prepared in-house), respectively GST-tagged Tnks-2 (873-1166 aa, prepared in-house) in assay buffer (50 mM HEPES, 4 mM Mg-chloride, 0.05% Pluronic F-68, 2 mM DTT, pH 7.7) overnight at 4° C. The plates are washed 3 times with PBS-Tween-20. The wells are blocked by incubation at room temperature for 20 minutes with 50 μl blocking buffer (PBS, 0.05% Tween-20, 0.5% BSA). Afterwards the plates are washed 3 times with PBS-Tween-20. The enzymatic reaction is performed in 50 μl reaction solution (50 mM HEPES, 4 mM Mg-chloride, 0.05% Pluronic F-68, 1.4 mM DTT, 0.5% DMSO, pH 7.7) with 10 μM bio-NAD (Biolog, Life science Inst., Bremen, Germany) as co-substrate in the absence or presence of the test compound (10 dilution concentrations) for 1 hour at 30° C. The reaction is stopped by 3 times washing with PBS-Tween-20. For the detection 50 μl of 20 ng/μl Streptavidin, HRP conjugate (MoBiTec, Göttingen, Germany) in PBS/0.05%Tween-20/0.01%BSA are added and the plates are incubated for 30 minutes at room temperature. After three times washing with PBS-Tween-20 50 μl of SuperSignal ELISA Femto Maximum sensitivity substrate solution (ThermoFisherScientific (Pierce), Bonn, Germany) are added. Following a 1 minute incubation at room temperature luminescence signals are measured with an Envision multimode reader (Perkin Elmer LAS Germany GmbH) at 700 nm. The full value used is the inhibitor-free reaction. The pharmacological zero value used is XAV-939 (Tocris) in a final concentration of 5 μM. The inhibitory values (IC50) are determined using either the program Symyx Assay Explorer® or Condosseo® from GeneData.

[4] = biological target: T4, GST-tagged Tnks-2 (873-1166 aa) (Homo sapiens, UniProt Q9H2K2); experiment: TNKS2 activity ELISA (autoparsylation assay); assay type: biochemical
T4 construct: GST-tagged Tnks-2 (873-1166 aa, prepared in-house); made in house
Procedure: as §4, §5, §6, §7

Tankyrases = experiment: Cellular inhibition of Tankyrase: increase of Axin2 level in DLD1 cells (Luminex); assay type: cell-based; settings: 24 hours, read-out: EC50 tankyrase ½ (cell assay)
Procedure: Measurement of Cellular Inhibition of Tankyrase
Since Tankyrases have been described to modulate cellular level of Axin2 (Huang et al., 2009; Nature) the increase of Axin2 level is used as readout for determination of cellular inhibition of Tankyrases in a Luminex based assay.
Cells of the colon carcinoma cell line DLD1 are plated in 96 well plates with 1.5×10^4 cells per well. Next day, cells are treated with a serial dilution of test compound in seven steps as triplicates with a final DMSO concentration of 0.3%. After 24 hours, cells are lysed in lysis buffer (20 mM Tris/HCl pH 8.0, 150 mM NaCl, 1% NP40, 10% Glycerol) and lysates are cleared by centrifugation through a 96 well filter plate (0.65 μm). Axin2 protein is isolated from cell lysates by incubation with a monoclonal anti-Axin2 antibody (R&D Systems #MAB6078) that is bound to fluorescent carboxybeads. Then, bound Axin2 is specifically detected with a polyclonal anti-Axin2 antibody (Cell Signaling #2151) and an appropriate PE-fluorescent secondary antibody. The amount of isolated Axin2 protein is determined in a Luminex^200 machine (Luminex Corporation) according to the manufacturer's instruction by counting 100 events per well. Inhibition of Tankyrase by test compounds results in higher levels of Axin2 which directly correlates with an increase of detectable fluorescence. As controls cells are treated with solvent alone (neutral control) and with a Tankyrase reference inhibitor IWR-2 (3E-06 M) which refers as control for maximum increase of Axin2. For analysis, the obtained data are normalized against the untreated solvent control and fitted for determination of the EC50 values using the Assay Explorer software (Accelrys).

DLD-1-cancer cells = settings: cited from earlier work

T1 sequence (O95271 1023-1327): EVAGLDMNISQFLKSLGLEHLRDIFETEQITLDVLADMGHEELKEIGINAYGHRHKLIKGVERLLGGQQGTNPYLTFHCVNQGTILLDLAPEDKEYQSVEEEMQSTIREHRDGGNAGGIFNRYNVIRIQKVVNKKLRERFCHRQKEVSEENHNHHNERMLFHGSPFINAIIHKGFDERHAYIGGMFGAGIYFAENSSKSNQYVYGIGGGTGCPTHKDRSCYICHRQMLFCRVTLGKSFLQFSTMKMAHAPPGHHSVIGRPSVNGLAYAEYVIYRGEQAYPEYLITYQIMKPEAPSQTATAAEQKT
T2 sequence (Q9H2K2 873-1166): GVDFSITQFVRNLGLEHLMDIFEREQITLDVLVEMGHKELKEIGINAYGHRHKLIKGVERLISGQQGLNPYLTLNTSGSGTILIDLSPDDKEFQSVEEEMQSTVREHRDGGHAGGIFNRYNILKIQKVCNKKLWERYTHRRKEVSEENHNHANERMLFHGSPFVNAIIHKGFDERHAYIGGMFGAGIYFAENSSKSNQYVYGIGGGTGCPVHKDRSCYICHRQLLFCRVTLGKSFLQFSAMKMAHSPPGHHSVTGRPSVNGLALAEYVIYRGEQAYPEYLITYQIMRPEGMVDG
T3 sequence (O95271 1023-1327): as the sequence (O95271 1023-1327) above
T4 sequence (Q9H2K2 873-1166): as the sequence (Q9H2K2 873-1166) above

| SMILES | pIC50 [1] | pIC50 [2] | pIC50 [3] | pIC50 [4] | pEC50 (Tankyrases) | growth of DLD-1-cancer cells (DLD-1-cancer cells) |
| --- | --- | --- | --- | --- | --- | --- |
| Cc1ccc(-c2nn3cccc3c(=O)[nH]2)cc1 [Compound A1, 2-p-tolyl-3H-pyrrolo[2,1-f][1,2,4]triazin-4-one] | > 6.52 | > 6.52 | > 6.52 | > 6.52 |  |  |
| COC(=O)c1ccc(-c2nn3cccc3c(=O)[nH]2)cc1 [Compound A2, 4-(4-oxo-3,4-dihydro-pyrrolo[2,1-f][1,2,4]triazin-2-yl)-benzoic acid methyl ester] | > 6.52 | > 6.52 |  |  | 5.52 to 6.52 |  |
| CC(C)(C)c1ccc(-c2nn3cccc3c(=O)[nH]2)cc1 [Compound A3, 2-(4-tert-butyl-phenyl)-3H-pyrrolo[2,1-f][1,2,4]triazin-4-one] | > 6.52 | 5.52 to 6.52 |  |  | 5.52 to 6.52 |  |
| O=c1[nH]c(-c2ccc(Br)cc2)nn2cccc12 [Compound A6, 2-(4-bromo-phenyl)-3H-pyrrolo[2,1-f][1,2,4]triazin-4-one] | > 6.52 | > 6.52 |  |  |  |  |
| CC(C)(N)c1ccc(-c2nn3cccc3c(=O)[nH]2)cc1 [Compound A16, 2-[4-(1-amino-1-methyl-ethyl)-phenyl]-3H-pyrrolo[2,1-f][1,2,4]-triazin-4-one] | 5.52 to 6.52 | 5.52 to 6.52 |  |  |  |  |
| Cc1cc2c(=O)[nH]c(-c3ccc(C(C)(C)O)cc3)nn2n1 [Compound A17, 6-[4-(1-hydroxy-1-methyl-ethyl)-phenyl]-2-methyl-5H-1,5,7,7a-tetraaza-inden-4-one] | 5.52 to 6.52 | 5.52 to 6.52 | 5.52 to 6.52 | 5.52 to 6.52 | 4.30 to 5.52 |  |
| Cc1ccc2c(=O)[nH]c(-c3ccc(C(C)(C)O)cc3)nn12 [Compound A19, 2-[4-(1-hydroxy-1-methyl-ethyl)-phenyl]-7-methyl-3H-pyrrolo[2,1-f][1,2,4]triazin-4-one] | > 6.52 | > 6.52 |  |  | > 6.52 |  |
| CC(C)(O)c1ccc(-c2nn3c(C(F)(F)F)ccc3c(=O)[nH]2)cc1 [Compound A20, 2-[4-(1-hydroxy-1-methyl-ethyl)-phenyl]-7-trifluoromethyl-3H-pyrrolo[2,1-f][1,2,4]triazin-4-one] | 5.52 to 6.52 | 4.30 to 5.52 |  |  |  |  |
| Oc1nc(-c2ccc(C(F)(F)F)cc2)nc2c1CSCC2 [XAV939] |  |  |  |  |  | inhibits growth |
